The test deals with T1, BRD9 (Homo sapiens, UniProt Q9H8M2).
T1 sequence (Q9H8M2 1-597): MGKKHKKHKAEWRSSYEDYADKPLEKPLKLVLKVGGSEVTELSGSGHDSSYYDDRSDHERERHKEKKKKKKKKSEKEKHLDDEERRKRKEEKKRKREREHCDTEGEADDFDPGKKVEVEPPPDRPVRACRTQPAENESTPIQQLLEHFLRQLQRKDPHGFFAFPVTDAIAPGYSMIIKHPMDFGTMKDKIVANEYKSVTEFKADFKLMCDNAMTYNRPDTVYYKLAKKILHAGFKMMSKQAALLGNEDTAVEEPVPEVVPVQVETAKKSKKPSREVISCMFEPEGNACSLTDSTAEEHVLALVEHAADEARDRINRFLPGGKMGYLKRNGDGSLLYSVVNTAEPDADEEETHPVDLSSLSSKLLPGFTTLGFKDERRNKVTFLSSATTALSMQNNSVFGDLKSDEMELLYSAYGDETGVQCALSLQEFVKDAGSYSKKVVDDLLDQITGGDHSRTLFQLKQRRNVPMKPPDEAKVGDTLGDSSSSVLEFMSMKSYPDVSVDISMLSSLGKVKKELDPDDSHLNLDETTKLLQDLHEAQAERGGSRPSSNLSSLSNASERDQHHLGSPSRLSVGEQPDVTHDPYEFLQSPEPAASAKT
Description: Degradation of BRD9 (IF), immunofluorescence in MV4-11 cells, 24 hours (Assay Protocol 2). The test is classed as cell-based. To be noted: BRD9 degradation. Also on record: A suspension of MV4-11 cells (ATCC CRL-9591) was prepared; host or cells: MV4-11. The procedure:
Assay Protocol 2—Degradation of BRD9 (IF)
A suspension of MV4-11 cells (ATCC CRL-9591) was prepared in phenol red-free assay media (IMDM Thermo Scientific 21056023+10% FBS ATCC 302025) and cells were seeded at 20,000 cells per well (45 μL) in sterile black poly-d-lysine coated 384 well plates (Greiner 781948). Compounds were prepared at 1000× final concentration in DMSO, diluted 1:100 in assay media, and 5 μL compound was added to each well of the cell plate. Cells were incubated for 24 hours at 37° C. with 5% CO2. All the following incubations for immunofluorescence staining were at room temperature. 15 μL of 16% PFA was added to each well (3.7% final concentration) and the cells were fixed for 15 min then washed twice with DPBS. Cells were permeabilised with 0.1% Triton X-100 for 10 min, Triton X-100 was removed, then blocked with 1% BSA in DPBS for 1 hour. Cells were stained with 25 μL anti-BRD9 E4Q3F antibody (CST 48306) diluted 1:25600 in 1% BSA in DPBS for 2-3 hours. Wels were washed twice with DPBS then incubated with 25 μL of 1% BSA containing a 1:1000 dilution of Anti-rabbit Alexa Fluor™ 647 secondary antibody (Thero Scientific A21244) and 1 μg/mL Hoechst nuclear counter stain (Abcam ab228551) for 1 hour. Wells were washed twice with DPBS prior to imaging on a Perkin Elmer Operetta CLS with 10× air lens. Images were processed using Harmony High-Content Imaging and Analysis Software (Perkin Elmer) and the mean contrast ratio of Alexa Fluor™ 647 in central nuclei was used to quantify BRD9 protein levels. Data was further analysed using Dotmatics software and % BRD9 remaining was calculated by normalisation to average data from high and low control wells (cells treated with DMSO or 100 nM CFT-8634 respectively).

[1] abbreviates: Assay protocol 2, read-out: DC50.
Setting [2] is: MV4-11, Assay protocol 2, read-out: Dmax.

In patent US20260092061A1, “COMPOUNDS FOR TARGETED PROTEIN DEGRADATION” (Amphista Therapeutics Limited, priority 2022, published 2026) one finds DC50 and Dmax data, which are given here for 15 compounds.

Read-outs that look alike come from different tables or passages of the source.

Regarding `CCC[C@@H]1c2cccc(CN3CCN(Cc4c(OC)cc(-c5cn(C)c(=O)c(C)c5C)cc4OC)CC34CC4)c2CCN1C(=O)/C(C#N)=C/C(C)(C)C` (single isomer, unassigned) [Compound C101, (E/Z)-2-(5-((7-(2,6-dimethoxy-4-(1,4,5-trimethyl-6-oxo-1,6-dihydropyridin-3-yl)benzyl)-4,7-diazaspiro[2.5]octan-4-yl)methyl)-1-propyl-1,2,3,4-tetrahydroisoquinoline-2-carbonyl)-4,4-dimethylpent-2-enenitrile], the 50% degradation concentration (DC50) under setting [1] fell in the range of 25 to 1000 nM. The Dmax under setting [2] was in the range of 40 to 70%.

With `COc1cc(-c2cn(C)c(=O)c(C)c2C)cc(OC)c1CN1C2CC1CN(C(=O)/C(C#N)=C/C1(F)CC1)C2` (mixture of isomers) [Compound B189, (E/Z)-2-(6-(2,6-dimethoxy-4-(1,4,5-trimethyl-6-oxo-1,6-dihydropyridin-3-yl)benzyl)-3,6-diazabicyclo[3.1.1]heptane-3-carbonyl)-3-(1-fluorocyclopropyl)acrylonitrile], under setting [1], the 50% degradation concentration (DC50) fell in the range of 1.25 to 10 nM. Further, under setting [2], the greatest degradation seen (Dmax) is greater than 75%.

Take `COc1cc(-c2cn(C)c(=O)c(C)c2C)cc(OC)c1CN1CCC(Cc2ccc3c(c2)C(C)N(C(=O)/C(C#N)=C/C(C)(C)C)CC3)CC1(C)C` (stereo not drawn) [Compound C53]: the half-maximal degradation concentration (DC50) under setting [1] lay in the range of 25 to 1000 nM. Moreover, the Dmax under setting [2] was 40 to 70%.

On to `COc1cc(-c2cn(C)c(=O)c(C)c2C)cc(OC)c1CN1C2CC1CN(C(=O)/C(C#N)=C/c1cc(C)on1)C2` (mixture of isomers) [BRD9y, (E/Z)-2-(6-(2,6-dimethoxy-4-(1,4,5-trimethyl-6-oxo-1,6-dihydropyridin-3-yl)benzyl)-3,6-diazabicyclo[3.1.1]heptane-3-carbonyl)-3-(5-methylisoxazol-3-yl)acrylonitrile], for which the Dmax (MV4-11, Table 4, determined according to Assay Protocol 2, read-out: Dmax^2) was 30 to 50%. Besides, under “Table 4, determined according to Assay Protocol 2, read-out: DC50^2”, the DC50 is less than 25 nM.

For `COc1cc(-c2cn(C)c(=O)c(C)c2C)cc(OC)c1CN1CCN(Cc2cccc3c2CCN(C(=O)/C(C#N)=C/C(C)(C)CF)[C@@H]3C(C)C)CC12CC2` (single isomer, unassigned) [Compound C103, (E/Z)-2-(5-((4-(2,6-dimethoxy-4-(1,4,5-trimethyl-6-oxo-1,6-dihydropyridin-3-yl)benzyl)-4,7-diazaspiro[2.5]octan-7-yl)methyl)-1-isopropyl-1,2,3,4-tetrahydroisoquinoline-2-carbonyl)-5-fluoro-4,4-dimethylpent-2-enenitrile], the DC50 under setting [1] is less than 1.25 nM. Besides, the Dmax under setting [2] was greater than 75%.

As to `COc1cc(-c2cn(C)c(=O)c(C)c2C)cc(OC)c1C(=O)N1CCC(Oc2cccc(C3CCCN3C(=O)/C(C#N)=C/C(C)(C)C)c2)CC1` (mixture of isomers) [Compound B79, (E/Z)-2-(2-(3-((1-(2,6-dimethoxy-4-(1,4,5-trimethyl-1-oxo-1,6-dihydropyridin-3-yl)benzoyl)piperidin-4-yl)oxy)phenyl)pyrrolidine-1-carbonyl)-4,4-dimethylpent-2-enenitrile], the half-maximal degradation concentration (DC50) under setting [1] is less than 1.25 nM. Further, under setting [2], the Dmax was in the range of 70 to 75%.

With `COc1cc(-c2cn(C)c(=O)c(C)c2C)cc(OC)c1CN1CCN(Cc2cccc3c2CCN(C(=O)/C(C#N)=C\C(C)(C)CF)C3C(C)C)[C@@H](C)C1` (single isomer, unassigned) [Compound C26], under setting [1], the DC50 is 10 to 25 nM. Moreover, the Dmax under setting [2] was greater than 75%.

`COc1cc(-c2cn(C)c(=O)c(C)c2C)cc(OC)c1CN1CCN(Cc2cccc3c2CCN(C(=O)/C(C#N)=C/C(C)(C)C)C3C)CC1(C)C` (mixture of isomers) [Compound B159, (E/Z)-2-(5-((4-(2,6-dimethoxy-4-(1,4,5-trimethyl-6-oxo-1,6-dihydropyridin-3-yl)benzyl)-3,3-dimethylpiperazin-1-yl)methyl)-1-methyl-1,2,3,4-tetrahydroisoquinoline-2-carbonyl)-4,4-dimethylpent-2-enenitrile]: the DC50 under setting [1] was less than 1.25 nM. In addition, under setting [2], the Dmax was 40 to 70%.

Regarding `COc1cc(-c2cn(C)c(=O)c(C)c2C)cc(OC)c1CN1CCCN(c2ccc3c(c2)[C@H](C)N(C(=O)/C(C#N)=C/C(C)(C)CF)CC3)CC1` (mixture of isomers) [Compound C68, (E/Z)-2-(7-(4-(2,6-dimethoxy-4-(1,4,5-trimethyl-6-oxo-1,6-dihydropyridin-3-yl)benzyl)-1,4-diazepan-1-yl)-1-methyl-1,2,3,4-tetrahydroisoquinoline-2-carbonyl)-5-fluoro-4,4-dimethylpent-2-enenitrile], the DC50 under setting [1] was 25 to 1000 nM. Also, the Dmax under setting [2] lay within 40 to 70%.

With `COc1cc(-c2cn(C)c(=O)c(C)c2C)cc(OC)c1CN1CCCN(c2ccc3c(c2)[C@@H](C)N(C(=O)/C(C#N)=C/C(C)(C)CF)CC3)CC1` (mixture of isomers) [Compound C69, (E/Z)-2-(7-(4-(2,6-dimethoxy-4-(1,4,5-trimethyl-6-oxo-1,6-dihydropyridin-3-yl)benzyl)-1,4-diazepan-1-yl)-1-methyl-1,2,3,4-tetrahydroisoquinoline-2-carbonyl)-5-fluoro-4,4-dimethylpent-2-enenitrile], under setting [1], the DC50 was 10 to 25 nM. Besides, the Dmax under setting [2] fell in the range of 40 to 70%.

Consider `COc1cc(-c2cn(C)c(=O)c(C)c2C)cc(OC)c1CN1CCN(Cc2ccc3c(c2)[C@@H](C)N(C(=O)/C(C#N)=C/C(C)(C)CF)CC3)C2(CC2)C1` (single isomer, unassigned) [Compound B202, (E/Z)-2-(7-((7-(2,6-dimethoxy-4-(1,4,5-trimethyl-6-oxo-1,6-dihydropyridin-3-yl)benzyl)-4,7-diazaspiro[2.5]octan-4-yl)methyl)-1-methyl-1,2,3,4-tetrahydroisoquinoline-2-carbonyl)-5-fluoro-4,4-dimethylpent-2-enenitrile], for which, under setting [1], the DC50 was less than 1.25 nM. The Dmax under setting [2] is greater than 75%.

Consider `COc1cc(-c2cn(C)c(=O)c(C)c2C)cc(OC)c1CN1CCN(Cc2ccc3c(c2)CN(C(=O)/C(C#N)=C/C(C)(C)C)CC3)C2(CC2)C1` [Compound C1, (E/Z)-2-(7-((7-(2,6-dimethoxy-4-(1,4,5-trimethyl-6-oxo-1,6-dihydropyridin-3-yl)benzyl)-4,7-diazaspiro[2.5]octan-4-yl)methyl)-1,2,3,4-tetrahydroisoquinoline-2-carbonyl)-4,4-dimethylpent-2-enenitrile], for which the DC50 under setting [1] was less than 1.25 nM. In addition, under setting [2], the Dmax is greater than 75%.

On to `COc1cc(-c2cn(C)c(=O)c(C)c2C)cc(OC)c1CN1CC2CC(C1)N2Cc1ccc2c(c1)[C@@H](C)N(C(=O)/C(C#N)=C/C(C)(C)C)CC2` (single isomer, unassigned) [Compound C64, (E/Z)-2-(7-((3-(2,6-dimethoxy-4-(1,4,5-trimethyl-6-oxo-1,6-dihydropyridin-3-yl)benzyl)-3,6-diazabicyclo[3.1.1]heptan-6-yl)methyl)-1-methyl-1,2,3,4-tetrahydroisoquinoline-2-carbonyl)-4,4-dimethylpent-2-enenitrile], for which the DC50 under setting [1] was in the range of 25 to 1000 nM. For the same compound, the maximal degradation (Dmax) under setting [2] fell in the range of 40 to 70%.

Take `COc1cc(-c2cn(C)c(=O)c(C)c2C)cc(OC)c1CN1CCN(Cc2cccc3c2CCN(C(=O)/C(C#N)=C/C(C)(C)C)C3C)CC1=O` (mixture of isomers) [Compound B142]: under setting [1], the 50% degradation concentration (DC50) was 1.25 to 10 nM. For the same compound, under setting [2], the Dmax is greater than 75%.

With `COc1cc(-c2cn(C)c(=O)c(C)c2C)cc(OC)c1CN1CCN(Cc2cccc3c2CCN(C(=O)/C(C#N)=C/C(C)(C)C)C3C)C2CC21` (mixture of isomers) [Compound B148, (E/Z)-2-(5-((5-(2,6-dimethoxy-4-(1,4,5-trimethyl-6-oxo-1,6-dihydropyridin-3-yl)benzyl)-2,5-diazabicyclo[4.1.0]heptan-2-yl)methyl)-1-methyl-1,2,3,4-tetrahydroisoquinoline-2-carbonyl)-4,4-dimethylpent-2-enenitrile], the half-maximal degradation concentration (DC50) under setting [1] is 1.25 to 10 nM. Moreover, the Dmax under setting [2] was in the range of 40 to 70%.

Usually DC50 stands for the concentration at which degradation of the target reaches its halfway point. For orientation: Dmax means the greatest extent of degradation seen.
